For assay [1], the target named is T1, ALK (Homo sapiens, UniProt Q9UM73).
T1 construct: using the recombinant kinase domain of the ALK in analogy to the VEGF-R kinase assay
The assay is described as follows: ALK tyrosine kinase inhibition (GST-ALK filter binding assay). The assay is classed as biochemical. To be noted: for IC50: read-out: IC50 Range Class, inhibition of ALK. Here is the method: See Wood et al., Cancer Res, Vol. 60, No. 8, pp. 2178-2189 (2000). In vitro enzyme assays using GST-ALK protein tyrosine kinase are performed in 96-well plates as a filter binding assay in 20 mM tris-HCl, pH=7.5, 3 mM MgCl2, 10 mM MnCl2, 1 mM DTT, 0.1 μCi/assay (=30 μL) [γ-^33P]-ATP, 2 μM ATP, 3 μg/mL poly (Glu, Tyr 4:1) Poly-EY (Sigma P-0275), 1% DMSO, 25 ng ALK enzyme. Assays are incubated for 10 minutes at ambient temperature. Reactions are terminated by adding 50 μL of 125 mM EDTA, and the reaction mixture is transferred onto a MAIP Multiscreen plate (Millipore, Bedford, Mass., USA), previously wet with methanol, and re-hydrated for 5 minutes with H2O. Following washing (0.5% H3PO4), plates are counted in a liquid scintillation counter. IC50 values are calculated by linear regression analysis of the percentage inhibition. Compared with the control without inhibitor, the compounds of formula (I) inhibit the enzyme activity by 50% (IC50), e.g., in a concentration of from 0.001-0.5 μM, especially from […].

Assay [2] has as its target T2, S6K1 (Homo sapiens, UniProt P23443, T412E).
T2 construct: His (N); made in house; host or cells: Sf9 insect cells (baculovirus, pFastBacHT A), co-infected with GST-PDK1 virus
In words: S6K1 kinase inhibition (S6K1ΔCT/T412E, TR-FRET). The assay is classed as biochemical. The conditions noted are these: read-out: IC50 Range Class, inhibition of S6K1. An excerpt:
The DNA fragment encoding S6K1ΔCT/T412E is subcloned to the baculovirus donor vector pFastBacHT A to generate a recombinant baculovirus that expresses S6K1ΔCT/T412E. Transfer vectors for S6K1ΔCT/T412E are transfected into the DH10Bac cell line (GIBCO). After selection of white colonies, they are used for viral DNA (bacmid) preparation. Sf9 cells (American Type Culture Collection) cells are then transfected with the viral DNA using Cellfectin reagent. Virus-containing media is collected from the transfected cell culture and is used for infection to increase its titer. For large-scale protein expression, Sf9 cells are co-infected with S6K1ΔCT/T412E and GST-PDK1 virus-containing media with MOI of 2.25 and 1, respectively. After 3 days, the cells expressing the recombinant enzyme are resuspended in the culture medium with a sterilized cell scraper and harvested by centrifugation. The cells are resuspended in 5 volumes of cell pellet of Extraction Buffer (50 mM MOPS pH 7.0, containing 300 mM NaCl, 0.05% Tween-20, 10 mM sodium pyrophosphate, 50 mM β-glycerophosphate, 0.2 mM cantharidic acid and 1× complete-EDTA protease inhibitor cocktail) and then disrupted with 15 strokes of a Dounce homogenizer followed by sonication on ice. The homogenate is centrifuged at 4° C. for 60 minutes at 48,000×g. The supernatant is clarified with a 5 μm filter and subjected to purification with TALON Superflow Resin (Clontech). First, 1 mL of TALON resin per 5 mL of the supernatant was equilibrated with the Extraction Buffer and resuspended in the supernatant followed by gentle agitation for 20 minutes at RT. After centrifugation at 700×g for 5 minutes, supernatant is removed. The resin is washed twice by adding 10 bed volumes of the Extraction Buffer, agitating for 10 minutes at RT, centrifugating at 700×g for 5 minutes, and discarding the supernatant. The resin is then resuspended with the same volume of the Extraction Buffer and transferred to an disposable chromatography column. The packed column is washed once with 10 bed volumes of the Extraction Buffer and additionally with the same volume of Wash Buffer (5 mM imidazole in the Extraction Buffer). Then, the His-tagged S6K1ΔCT/T412E is eluted with four bed volumes of Elution Buffer (150 mM imidazole in the Extraction Buffer).
Measure of enzyme activity: The kinase assay with purified S6K1ΔCT/T412E is performed with TR-FRET (Time-Resolved Fluorescene Resonance Energy Transfer) technology. First, ATP-dependent phosphorylation of the biotinylated substrate peptide corresponding to residues 229-242 of S6 ribosomal protein (Biot-AKRRRLSSLRASTS) is carried out for 1 hour at 37° C. in […] under humidified air. The kinase reaction mixture of the final volume of 9 μL contains 2.57 ng of purified S6K1ΔCT/T412E protein, 50 mM MOPS (pH 7.0), 0.1 mM EGTA, 0.01 mM Na3VO4, 0.05% Tween-20, 0.01% BSA, 1 mM DTT, 10 mM MgCl2, 3 μM ATP, 0.5 μM biotinylated substrate peptide, 1% of DMSO or the text compounds of the formula (I) at the required concentration in 1% DMSO. For measurement of background, 20 mM of EDTA is added to the reaction mixture. […] Phosphorylated peptide indicative of kinase activity is quantitated by exciting the sample at 330 nm and comparing donor emission at 615 nm and acceptor emission at 665 nm by 2101 EnVision HTS multilabel plate reader (Perkin Elmer). […]
On the technique in general: In TR-FRET formats the signal depends on donor and acceptor labels being close together.

T1 sequence (Q9UM73 1116-1392 limits assumed): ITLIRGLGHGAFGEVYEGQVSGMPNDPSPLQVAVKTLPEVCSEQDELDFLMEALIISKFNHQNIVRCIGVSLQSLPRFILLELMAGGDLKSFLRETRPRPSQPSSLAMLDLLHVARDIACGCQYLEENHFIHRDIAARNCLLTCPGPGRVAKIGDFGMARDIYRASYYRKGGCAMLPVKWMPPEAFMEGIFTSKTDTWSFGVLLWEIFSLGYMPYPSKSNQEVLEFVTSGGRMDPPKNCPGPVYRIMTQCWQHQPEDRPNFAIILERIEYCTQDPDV
T2 sequence (P23443 1-421 T412E): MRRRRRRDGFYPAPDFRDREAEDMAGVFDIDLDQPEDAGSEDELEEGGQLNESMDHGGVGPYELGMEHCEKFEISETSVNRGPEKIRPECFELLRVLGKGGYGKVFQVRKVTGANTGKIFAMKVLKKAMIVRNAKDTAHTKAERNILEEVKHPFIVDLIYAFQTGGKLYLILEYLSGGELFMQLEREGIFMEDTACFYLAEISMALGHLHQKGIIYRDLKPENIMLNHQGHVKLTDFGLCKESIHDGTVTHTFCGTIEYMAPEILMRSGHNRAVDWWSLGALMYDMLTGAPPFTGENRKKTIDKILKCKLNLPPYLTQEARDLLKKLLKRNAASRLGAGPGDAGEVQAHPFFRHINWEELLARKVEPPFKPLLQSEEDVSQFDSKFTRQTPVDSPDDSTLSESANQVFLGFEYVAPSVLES

The term IC50 denotes the concentration needed to halve the response being measured. For the molecule `NCCc1ccc(-n2cnc3cnc4ccc(-c5ccc6[nH]ccc6c5)cc4c32)c(Cl)c1` [Example 11, 2-{3-Chloro-4-[8-(1H-indol-5-yl)-imidazo[4,5-c]quinolin-1-yl]-phenyl}-ethylamine], the IC50 in assay [1] and in assay [2] was no more than 500 nM in each case.

As to `NCCc1ccc(-n2cnc3cnc4ccc(-c5ccc6[nH]ccc6c5)cc4c32)cc1F` [Example 18, 2-{2-Fluoro-4-[8-(1H-indol-5-yl)-imidazo[4,5-c]quinolin-1-yl]-phenyl}-ethylamine], the “IC50 Range Class, inhibition of ALK” value in assay [1] is recorded as “B/A”. In assay [2], the IC50 is no more than 500 nM. For the molecule `NCCCc1ccc(-n2cnc3cnc4ccc(-c5ccc6[nH]ccc6c5)cc4c32)c(Cl)c1` [Example 48, 3-{3-Chloro-4-[8-(1H-indol-5-yl)-imidazo[4,5-c]quinolin-1-yl]-phenyl}-propylamine], the IC50 in assay [1] is no more than 500 nM.

The values are drawn from US20080262021A1, “1H-Imidazoquinoline Derivatives as Prote In Kinase Inhibitors” (NOVARTIS AG, priority 2003, published 2008).
